Experiments:
ipl1-as6 = experiment: Spindle localization of Sli15-GFP in pre-anaphase cells expressing ipl1-as6; format: cell-based, budding yeast; conditions: 50 μM
Protocol: (§1) The ATP analogues 1-NMPP1 and 1-NAPP1 (final concentration 50 μM) were used to block the activity of mps1-as1 and ipl1-as6, respectively. Cells were first synchronized in S-phase using 100 mM hydroxyl urea (HU) for 2.5 h, washed with YPD, and then released into media containing the appropriate inhibitor for 15 min. This was followed by the addition of rapamycin to the media to anchor Mps1-Frb at Mtw1-C. The bud size was used to monitor cell-cycle progress.
To study the effect of 1-NAPP1 on ipl1-as6 activity, the spindle localization of Sli15-GFP was measured in pre-anaphase cells67. The bud size was used to find pre-anaphase cells. If the bud was smaller than 50% in size as compared with the mother cell, and contained a short bar of Sli15-GFP located within the mother cell and at the bud neck, then the cell was deemed to be in pre-anaphase.

yeast cells = experiment: Yeast cell-cycle progression (large-budded / metaphase-arrested cells) after rapamycin-induced anchoring; format: cell-based, budding yeast
Protocol: Stock solution (1 mg ml^−1) of rapamycin in DMSO was diluted ×1,000 to achieve 1 μg ml^−1 final concentration in all experiments involving rapamycin-induced dimerization.
as §1
Anaphase cells in cycling cultures will also be scored as large-budded cells by this criterion. In strains carrying fluorescent markers, the separation of the kinetochore clusters or spindle pole bodies was used to determine whether or not the cells arrested in mitosis. Large-budded cells with kinetochore-cluster separation smaller than 1 μm or spindle length smaller than 2 μm were scored as metaphase-arrested cells (ref. 68; herein incorporated by reference in its entirety).

HeLa cells = experiment: Duration of mitosis / mitotic arrest by time-lapse imaging of HeLa cells expressing rapamycin-dimerizable Mps1 and KNL1 phosphodomain (eSAC); format: cell-based, human
Excerpt: As described elsewhere herein, a kinetochore-independent SAC activator was engineered which comprises a region of KNL1 that contains a series of Mps1 phosphorylation sites, known as “MELT repeats”, which are necessary for SAC activation, but lacks the kinetochore-localization domain at the C-terminus or the newly identified transient localization domain at its N-terminus (FIG. 21). FKBP12 was fused to this minimal KNL1 phosphodomain and FRB to Mps1, and rapamycin was used to induce dimerization of the fusion proteins in HeLa cells (FIGS. 17B, 22). […] These cells maintained an aligned metaphase plate indicating an inability to initiate anaphase and that the observed mitotic arrest was not due to the disruption of kinetochore-microtubule interactions. […] To further ensure kinetochore-independent operation of the dimerized proteins, the kinetochore-localization domain of Mps1 was removed (FIG. 17E). […] Furthermore, individually inhibiting the kinase activity of exogenous Mps1 using an analog-sensitive version of the kinase domain or preventing the phosphorylation of the minimal KNL1 phosphodomain by using a non-phosphorylatable version of the phosphodomain each prevented the rapamycin-induced mitotic arrest (FIG. 23). Thus, the catalytic activity of the Mps1 kinase domain and the Mps1 phosphorylation sites within the minimal phosphodomain are both essential for the rapamycin-induced metaphase arrest. […] The above described system of FKBP12/FRB-dimerizable Mps1 kinase domain and KNL1 phosophodomains is referred to in this example as an ectopic SAC activation system (eSAC).
MELT repeats in the eSAC phosphodomain were phosphorylated only in the presence of rapamycin, and were not phosphorylated if the SAC was activated by creating unattached kinetochores by treatment with the microtubule depolymerizing drug nocodazole (FIG. 18A). Reciprocally, the MELT repeats in endogenous KNL1 were not appreciably phosphorylated in rapamycin-treated cells, but were strongly phosphorylated in nocodazole-treated cells. […]

CC(C)(C)n1nc(-c2cccc3ccccc23)c2c(N)ncnc21 [1-NAPP1]
Inhibition of ipl1-as6 (Sli15-GFP spindle localization) (ipl1-as6): inhibits ipl1-as6 | Effect on SAC activation induced by Mps1 anchored at Mtw1-C (yeast cells; S-phase synchronized ipl1-as6 cells released into 1-NAPP1 and rapamycin): did not have any effect on SAC activation

CC(C)(C)n1nc(Cc2cccc3ccccc23)c2c(N)ncnc21 [1NM-PP1]
Effect on eSAC-induced arrest (HeLa cells; 10 μM with Rapamycin, analog-sensitive Mps1S602A kinase domain with minimal phosphodomain): abrogated the eSAC-induced arrest | Effect on SAC activation by Mps1-Frb anchored at the kinetochore (yeast cells; heterozygous diploids expressing mps1-as1 and Mps1-Frb, 1-NMPP1 15 min, then rapamycin): does not affect SAC activation

c1nc2nc(Nc3ccc(N4CCOCC4)cc3)nc(NC3CCCCC3)c2[nH]1 [Reversine]
Effect on rapamycin-induced mitotic arrest (time until anaphase entry) (HeLa cells; HeLa cells in rapamycin-induced arrest, KNL1 phosphodomain-Mps1 dimerization): reversed rapidly | Effect on SAC and cell division (duration of mitosis) (HeLa cells; HeLa cells, Reversine-treated vs untreated, no rapamycin): inactivates the SAC and significantly accelerates cell division

B1: Spc105120: 329: minimal, anchorable phosphodomain comprising residues 120-329 of Spc105, contains all 6 MELT motifs (protein)
chain: LVTSTQIDDARTEEKTAAEEDPDTSGMELTEPIVATSDSNKASQHDPTSMEMTEVFPRSIRQKNPDVEGESIESSQQIDDVEAVREETMELTAIHNVHDYDSISEDTVEGEPIDLTEYESKPYVPNSVSRSTGKSSDYSVERSNDKSDLSKSENKTNSSQPMEITDIFHADPQNPMGLHSDNNINDDGNEMELTQIQTNFDRDNHHIDES
modifications: left off: small tags and cut ends
notes: minimal, anchorable phosphodomain comprising residues 120-329 of Spc105, contains all 6 MELT motifs
Cell-cycle arrest / SAC activation when anchored to Mps1 (yeast cells; anchored to Mps1-Fkbp12 with rapamycin, asynchronously dividing cells): arrested in metaphase

Source: US12454559B2, “Activating mitotic checkpoint control mechanisms” (The Regents of the University of Michigan, priority 2015, dated 2025)
